# Data from ChEMBL document CHEMBL3352747, “Novel heterocyclic scaffolds of GW4064 as farnesoid X receptor agonists” (Bioorg Med Chem Lett, 2015).
# Columns and labels:
# [1] = target: T1, Bile acid receptor (Homo sapiens) (UniProt Q96RI1); experiment: Agonist activity at FXR (unknown origin) transfected into african green monkey CV1 cells assessed as ligand-mediated transcription by luciferase reporter/ transient transfection assay relative to GW4064; assay type: cell-based; details: CV-1
# T1 sequence (whole entry): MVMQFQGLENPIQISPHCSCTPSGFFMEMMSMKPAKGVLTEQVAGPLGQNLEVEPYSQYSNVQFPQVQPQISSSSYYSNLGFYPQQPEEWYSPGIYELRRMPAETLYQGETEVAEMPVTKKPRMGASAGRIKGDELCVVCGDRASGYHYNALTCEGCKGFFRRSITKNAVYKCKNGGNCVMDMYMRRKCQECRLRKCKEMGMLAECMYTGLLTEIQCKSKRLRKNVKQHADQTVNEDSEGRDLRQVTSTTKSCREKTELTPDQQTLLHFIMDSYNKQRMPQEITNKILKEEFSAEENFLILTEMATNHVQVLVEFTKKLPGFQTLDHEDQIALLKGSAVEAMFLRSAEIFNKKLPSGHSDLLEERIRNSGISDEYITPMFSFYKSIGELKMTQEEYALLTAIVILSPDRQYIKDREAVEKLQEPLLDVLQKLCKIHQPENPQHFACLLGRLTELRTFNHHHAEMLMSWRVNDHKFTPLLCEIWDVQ
# Bile acid receptor [2] = target: T2, Bile acid receptor (Homo sapiens, UniProt Q96RI1); experiment: Agonist activity at FXR (unknown origin) assessed as ligand-mediated interaction of the SRC1 peptide with protein LBD by FRET assay
# T2 sequence (Q96RI1 whole entry): T1 sequence (whole entry)
# [3] = target: T1, Bile acid receptor (Homo sapiens); experiment: Agonist activity at FXR (unknown origin) assessed as ligand-mediated interaction of the SRC1 peptide with protein LBD by FRET assay relative to GW4064
# Bile acid receptor [4] = target: T2, Bile acid receptor; experiment: Agonist activity at FXR (unknown origin) transfected into african green monkey CV1 cells assessed as ligand-mediated transcription by luciferase reporter/ transient transfection assay; assay type: cell-based, CV-1
Emax [1],EC50 (Bile acid receptor [2]),Emax [3],EC50 (Bile acid receptor [4]),EC50 (Bile acid receptor [4]; cv-1),Structure (SMILES)
125%,112 nM,106%,35 nM,–,CC(C)c1nnn(-c2c(Cl)cccc2Cl)c1COc1ccc(/C=C/c2cccc(C(=O)O)c2)c(Cl)c1
47%,123 nM,80%,145 nM,–,CC(C)n1nnc(-c2c(Cl)cccc2Cl)c1COc1ccc(/C=C/c2cccc(C(=O)O)c2)c(Cl)c1
100%,42 nM,105%,20 nM,–,CC(C)c1cnn(-c2c(Cl)cccc2Cl)c1COc1ccc(/C=C/c2cccc(C(=O)O)c2)c(Cl)c1
62%,309 nM,88%,562 nM,–,CC(C)n1cnc(COc2c(Cl)cccc2Cl)c1COc1ccc(/C=C/c2cccc(C(=O)O)c2)c(Cl)c1

# The remaining lines, values behind:
Structure (SMILES),Emax [1],EC50 (Bile acid receptor [2]),Emax [3],EC50 (Bile acid receptor [4]),EC50 (Bile acid receptor [4]; cv-1)
CC(C)c1oc(=O)n(Cc2c(Cl)cccc2Cl)c1COc1ccc(/C=C/c2cccc(C(=O)O)c2)c(Cl)c1,104%,110 nM,90%,54 nM,–
CC(C)c1ncn(CCc2c(Cl)cccc2Cl)c1COc1ccc(/C=C/c2cccc(C(=O)O)c2)c(Cl)c1,35%,617 nM,49%,676 nM,–
CC(C)c1oc(=O)n(CCc2c(Cl)cccc2Cl)c1COc1ccc(/C=C/c2cccc(C(=O)O)c2)c(Cl)c1,82%,66 nM,99%,35 nM,–
CC(C)c1occ(COc2c(Cl)cccc2Cl)c1COc1ccc(/C=C/c2cccc(C(=O)O)c2)c(Cl)c1,–,1230 nM,51%,–,< 10000 nM
